Source: patent publication US5616556A, “Method of treating rheumatoid arthritis and osteoarthrosis using tetrahydro WS9326A” (Fujisawa Pharmaceutical Co., Ltd., priority 1990, dated 1997)
Starred links: 1 amine or outer side, 2 acyl side, 3 side chain; linkers in the order of their positions; H or OH if unused. Positions of bridges follow the written chain, without caps; N, C: chain ends. Non-standard residues stand in square brackets, D forms with d. Residues, ends and D or L forms follow the SMILES beside them. *: point of attachment. X2 = CN(/C(=C/c1ccc(O)cc1)C(=O)[*:2])[*:1]; aThr = C[C@H](O)[C@H](N)C(=O)O; X1 = CCCCCc1ccccc1CCC(=O)*

What was measured:
dogs = conditions: dog, in vivo, 12 mg/kg
Method: (§1) An injectable suspension containing the test compound and other ingredients mentioned below was administered into the knee joint of rabbits (6 males and 6 females) and dogs (3 males and 3 females) twice a week for 4 weeks. The dose was 8 mg/kg for rabbits and 12 mg/kg for dogs.

rabbits = conditions: rabbit, in vivo, 8 mg/kg
Method: as §1

**Q.** Which results are given for `CCCCCc1ccccc1CCC(=O)N[C@@H]1C(=O)N(C)/C(=C/c2ccc(O)cc2)C(=O)N[C@@H](CC(C)C)C(=O)N[C@H](Cc2ccccc2)C(=O)N[C@@H]([C@H](C)O)C(=O)N[C@@H](CC(N)=O)C(=O)N[C@@H](CO)C(=O)O[C@@H]1C` [tetrahydro-WS9326A] (X1-T[X2]L[dF][aThr]NS; ester 1-C)?
**A.** death (dogs): caused death in neither rabbits nor dogs; death (rabbits): caused death in neither rabbits nor dogs
